Reference: patent US8685936B2, “Sphingosine kinase inhibitor prodrugs” (Apogee Biotechnology Corporation, priority 2009, dated 2014)
“Also recorded” adds a separate entry of the source.

What was measured:
[1] = system: DSS-colitis model; assay: Acute DSS-colitis model of inflammatory bowel disease; type: in vivo, C57BL/6 mice; details: for colon length (contraction of the colon), ester prodrugs: 4-5 per group (Example 17, FIG. 10)
Description: FIG. 7. Effects of Compound 1 and Compound 2 on the Disease Activity Index (DAI) in the acute DSS-colitis model. […] After 6 days, the DAI was calculated for each group. Values represent the mean±std. dev. for 5-6 mice per group. […] FIG. 8. Effects of Compound 1 and Compound 2 on colon length in the acute DSS-colitis model. […] After 6 days, the animals were sacrificed and the length of the colon was measured. Values represent the mean±std. dev. for 6-7 mice per group. In this model, colon length decreases as the disease progresses. […] FIG. 9. Effects of Compound 1 and Compound 2 on neutrophil infiltration into the colon in the acute DSS-colitis model. […] After 6 days, the animals were sacrificed and the colons were harvested. Myeloperoxidase activity (MPO) was measured and normalized by the protein concentration of the samples. Values represent the mean±std. dev. for 6-7 mice per group. In this model, MPO activity in the colon increases as a result of neutrophil infiltration into the colon as the disease progresses. […] FIG. 10. Effects of ester prodrugs on colon length in the acute DSS-colitis model. C57BL/6 mice were treated for 6 days as follows: 2% DSS in the drinking water and daily oral administration of Vehicle (described in FIG. 7); or 2% DSS in the drinking water and oral administration of 50 mg/kg the indicated ester prodrugs in Vehicle. After 6 days, the animals were sacrificed and the length of the colon was measured. Values represent the mean±std. dev. for 4-5 mice per group. In this model, colon length decreases as the disease progresses. […] FIG. 11. Effects of ester prodrugs on neutrophil infiltration into the colon in the acute DSS-colitis model. C57BL/6 mice were treated for 6 days as follows: 2% DSS in the drinking water and daily oral administration of Vehicle (described in FIG. 7); or 2% DSS in the drinking water and oral administration of 50 mg/kg the indicated ester prodrugs in Vehicle. After 6 days, the animals were sacrificed and the length of the colon was measured. Values represent the mean±std. dev. for 4-5 mice per group. In this model, MPO activity in the colon increases as a result of neutrophil infiltration into the colon as the disease progresses. […] In these experiments, male C57BL/6 mice were provided with standard rodent diet and water ad libitum. After their acclimation, the animals were randomly divided into groups of 5 or 6 for DSS (40,000 MW from ICN Biomedicals, Inc., Aurora, Ohio)- and drug-treatment. The Compounds were dissolved in a Vehicle consisting of 46.7% PEG 400, 46.7% of a solution of 0.375% Tween 80 in saline and 6.6% ethanol, and given once daily (starting on Day 0) by oral gavage in a volume of 0.1 mL per dose. The mice were given normal drinking water or 2% DSS (starting on Day 0) and treated orally with Compound 1 or Compound 2 at a dose of 50 mg/kg daily. The body weight of each animal was measured each day, and the Disease Activity Index (DAI) was scored for each animal on Day 6. On Day 6, the animals were sacrificed by cervical dislocation and the entire colon was removed and measured to the nearest 0.1 cm. The distal 3 cm of the colons were used for biochemical analyses of inflammation markers.

[2] = system: TNBS-induced Crohn's Disease model; assay: TNBS-induced Crohn's Disease model; type: in vivo
Description: FIG. 12. Effects of Compound 1 and Compound 2 on colon histology in the TNBS-induced Crohn's Disease model. On Day 0, female Sprague-Dawley rats were administered TNBS using a stainless steel catheter that was inserted into the colon (8 cm proximal to the anus; 1.0 mL of solution containing 30 mg TNBS and 20% ethanol in PBS). On Days 0-5 animals received daily oral gavage of Vehicle (described in FIG. 7) or 50 mg/kg of Compound 1 or Compound 2 in Vehicle. On Day 6, the colons were removed, weighed and scored for macroscopic damage. The distal 6 cm were transected for subsequent histology and biochemical analyses. In this model, the macroscopic score is an index of histologic damage to the colon which increases as the disease progresses.
FIG. 13. Effects of Compound 1 and Compound 2 on colon weight in the TNBS-induced Crohn's Disease model. Colon weights were measured for the rats described in FIG. 12. Values represent the mean±std. dev. for 5-6 rats per group. In this model, colon weight increases as the disease progresses due to progressive inflammation-mediated edema.
FIG. 14. Effects of Compound 2 on neutrophil infiltration into the colon in the TNBS-induced Crohn's Disease model. Neutrophil infiltration was evaluated in the rats described in FIG. 12. Values represent the mean±std. dev. for 5-6 rats per group. In this model, MPO activity in the colon increases as a result of neutrophil infiltration into the colon as the disease progresses.
The trinitrobenzene sulfonic acid (TNBS) model in rats provides a rapid, reliable and reproducible IBD model that mimics the manifestations of Crohn's Disease. Application of the hapten TNBS to the colon in the presence of ethanol results in transmural infiltrative disease that is limited to the colon and appears to be an IL-12-driven, Th1-mediated immunologic response. […] TNBS induces measurable injury within 2 to 3 days, peak acute inflammation within a week, and gradual progression into chronic inflammation lasting about 2 months.
To test the efficacy of the Compounds, groups of female Sprague-Dawley rats were administered TNBS on Day 0 and treated with vehicle (as the negative control group), Compound 1 or Compound 2 on Days 0-5 by oral gavage at a dose of 50 mg/kg/day. […] Disease progression was evaluated by macroscopic score, colon weight and colon MPO activity at sacrifice. The macroscopic score measures macroscopic damage within the distal 6 cm of the colon using a system that considers the extent of and number of ulcerations.

[3] = Conversion of Compound 2 to Compound 1 in living mice; plasma levels of Compound 1 by HPLC; type: in vivo
Description: FIG. 4. Conversion of Compound 2 into Compound 1 in vivo. Balb/C female mice, 6-8 weeks old, were dosed with either Compound 1 (●) or Compound 2 (♦) at 50 mg/kg by intravenous injection. Mice were euthanized at the indicate times after injection, and blood was harvested by cardiac puncture and plasma was prepared. The plasma was then extracted and analyzed for Compound 1 levels by HPLC.
To extend the in vitro studies described above, the ability of Compound 2 to be converted to Compound 1 in an in vivo test system was determined. In these experiments, Compound 1 or Compound 2 was dissolved in PEG400 and administered to female Balb/C mice at a dose of 50 mg/kg by intravenous injection. Mice were sacrificed and blood was removed via cardiac puncture at 2 minutes, 15 minutes, 30 minutes or 60 minutes. The concentration of Compound 1 in the blood of the animals at each of the time points was determined using HPLC with UV detection as described in the previous Example. […] In the case of administration of Compound 2, plasma concentrations of Compound 1 rose during the first 30 minutes and then were decreased with a half-time of clearance of approximately 20 minutes.

[4] = system: Murine JC mammary adenocarcinoma cells; assay: Cytotoxicity, MTS cell viability assay; type: cell-based; details: 72 hours
Description: FIG. 5. Inhibition of tumor cell proliferation by Compound 1 and Compound 2. Murine JC mammary adenocarcinoma cells were exposed to the indicated concentrations of either Compound 1 (▪) or Compound 2 (▴) for 72 hr. At the end of the exposure, the number of viable tumor cells was quantified using the MTS assay. Values represent the fraction of surviving cells compared with DMSO-(vehicle)-treated control cells.
To further assess the biological efficacies of the Compounds in intact cells, Compound 1 and Compound 2 were evaluated for cytotoxicity using a murine breast cancer cell line. These experiments followed methods that have been extensively used. The cells were treated with varying doses of the test Compound for 72 hours, and then cell viability was measured using CellTiter 96® AQueous Non-Radioactive Cell Proliferation Assay (MTS) available from Promega Corporation. Values represent the mean±std. dev. percentage of cells that survive at each of the indicated concentrations of Compound 1 or Compound 2. […] However, the extent of cell killing and the potency for cell killing were greater for Compound 2 than Compound 1.

[5] = 2% DSS, 50 mg/kg oral, 6 days, C57BL/6 mice
[6] = TNBS Day 0, 50 mg/kg/day oral gavage Days 0-5, Day 6, female Sprague-Dawley rats

## CCCC(=O)Oc1ccc(CCNC(=O)C23CC4CC(C2)CC(c2ccc(Cl)cc2)(C4)C3)cc1OC(=O)CCC [Compound 4, Butyric acid 2-butyryloxy-5-(2-{[3-(4-chlorophenyl)-adamantane-1-carbonyl]-amino}ethyl)phenyl ester]
[1]; 2% DSS, 50 mg/kg oral, 6 days, C57BL/6 mice, 50 mg/kg
  colon length (contraction of the colon), ester prodrugs: effective in preventing the contraction of the colons; also recorded: slightly less effective
other
  melting point: 78 to 80 °C

## CC(C)C(N)C(=O)Oc1cc(CCNC(=O)C23CC4CC(C2)CC(c2ccc(Cl)cc2)(C4)C3)ccc1O (stereo not drawn) [Compound 6, 2-Amino-3-methyl-butyric acid 5-(2-{[3-(4-chlorophenyl)adamantane-1-carbonyl]amino}ethyl)-2-hydroxyphenyl ester]
[1]; [5]
  colon length (contraction of the colon), ester prodrugs: effective in preventing the contraction of the colons
[1]; 2% DSS, 50 mg/kg oral, 6 days, C57BL/6 mice, 4-5 per group (Example 17, FIG. 11)
  colonic MPO activity, ester prodrugs: all of the Compounds except Compound 6 substantially prevented the elevation of colonic MPO activity

## CCC(=O)Oc1ccc(CCNC(=O)C23CC4CC(C2)CC(c2ccc(Cl)cc2)(C4)C3)cc1OC(=O)CC [Compound 3, Propionic acid 2-propionyloxy-5-(2-{[3-(4-chlorophenyl)-adamantane-1-carbonyl]-amino}ethyl)phenyl ester]
[1]; [5]
  colon length (contraction of the colon), ester prodrugs: effective in preventing the contraction of the colons
other
  melting point: 114 to 115 °C

## O=C(NCCc1ccc(O)c(O)c1)C12CC3CC(C1)CC(c1ccc(Cl)cc1)(C3)C2 [Compound 1, 3-(4-Chlorophenyl)-adamantane-1-carboxylic acid [2-(3,4-dihydroxyphenyl)-ethyl]amide]
[2]; 50 mg/kg/day oral gavage Days 0-5, rats sacrificed on Day 6
  Compound-related toxicities: no Compound-related toxicities apparent
[2]; [6]
  Macroscopic Score of colon damage: but not Compound 1, reduced the Macroscopic Score; also recorded: much less active
  colon weight: but not Compound 1 reduced the elevation of the colon weight; also recorded: much less active
[1]; 2% DSS in drinking water, 50 mg/kg daily oral, Day 6, C57BL/6 mice
  Disease Activity Index (DAI): reduced the intensity of the IBD manifestations
[1]; 2% DSS, 50 mg/kg daily oral, Day 6, C57BL/6 mice (Example 16, FIG. 9)
  colon myeloperoxidase (MPO) activity (neutrophil infiltration): markedly attenuated
[1]; 2% DSS, 50 mg/kg oral, Day 6, C57BL/6 mice (Example 16, FIG. 8)
  colon length: colons of significantly longer length
[3]; 50 mg/kg intravenous, female Balb/C mice, sampling at 2, 15, 30, 60 minutes
  time of maximum plasma concentration of Compound 1: earliest time point
[3]; 50 mg/kg of the named compound by intravenous injection in PEG400, female Balb/C mice, Compound 1 measured
  half-time for clearance of Compound 1 from plasma: approximately 5 minutes
[4]
  inhibition of tumor cell proliferation (cell viability): can inhibit tumor cell proliferation
